Results published in patent US5068247A, “2-aminopentanoic acid compounds and their use as immunosuppressants” (priority 1989, dated 1991).
≈ marks a conversion by molar mass, not a printed value. Like-named read-outs stand apart in the source and are kept apart here.

Columns and labels:
Assay type in all cases: cell-based
[1] = system: IL-2 production in PHA-stimulated mouse spleen cells; test: suppression of IL-2 production in PHA-stimulated mouse spleen cells; settings: for inhibition at 0.001 µg/mL / inhibition at 0.01 µg/mL / inhibition at 0.1 µg/mL / inhibition at 1 µg/mL: Mus musculus, 24 h, read-out: Suppression
Procedure: (§1) The suppression of IL-2 and IL-3 production in the mitogen-stimulated mouse spleen cells was examined as follows:
(§2) The spleen was resected from 5- to 8-week-old male C3H/HeN mice, and a single cell suspension of spleen cells was prepared by using the RPMI1640 culture medium. After hemolytic treatment, the concentration of the suspension was adjusted to 10^7 cells/ml by using the RPMI1640 culture medium supplemented with 20% FCS, to which 10 μg/ml of phytohemagglutinin (PHA) was added as mitogen. […] After termination of culture, the supernatant was collected and used as the culture supernatant of PHA-stimulated mouse spleen cells.
The IL-2 activity in the culture supernatant of PHA-stimulated mouse spleen cells was assayed as follows:
IL-2 dependent mouse cell line CTLL-2 cells were suspended in the RPMI1640 culture medium supplemented with 30% FCS to the concentration of 2×10^5 cells/ml. One hundred μl of the cell suspension and 100 μl of the two-fold serial dilution of the culture supernatant of PHA-stimulated mouse spleen cells were added to a 96-well flat-bottomed microtest plate. […] The IL-2 activity is expressed in U/ml as the dilution at which the absorbancy measured by MTT method was 50% of the maximum.

[2] = system: IL-3 production in PHA-stimulated mouse spleen cells; test: suppression of IL-3 production in PHA-stimulated mouse spleen cells; settings: for inhibition at 0.001 µg/mL / inhibition at 0.01 µg/mL / inhibition at 0.1 µg/mL / inhibition at 1 µg/mL: Mus musculus, 24 h, read-out: Suppression
Procedure: as §1, §2
The IL-3 activity was assayed as follows:
IL-3-dependent mouse cell line FDC-P2 cells were suspended in the RPMI1640 culture medium supplemented with 10% FCS to the concentration of 2×10^5 cells/ml. One hundred μl of the cell suspension and 100 μl of the two-fold serial dilution of the culture supernatant of PHA-stimulated mouse spleen cells described above were added to a 96-well flat-bottomed microtest plate. […] The IL-3 activity is expressed in U/ml as the dilution at which the absorbancy measured by MTT method was 50% of the maximum.

CTLL-2 cells = test: suppression of proliferation of IL-2-dependent mouse cell line CTLL-2 induced by IL-2; settings: IL-2 50 U/ml; for inhibition at 0.001 µg/mL / inhibition at 0.01 µg/mL / inhibition at 0.1 µg/mL / inhibition at 1 µg/mL: Mus musculus, CTLL-2, 68 h
Procedure: IL-2-dependent mouse cell line CTLL-2 cells were suspended in the RPMI1640 culture medium supplemented with 30% FCS to the concentration of 4×10^5 cells/ml. Fifty μl of the cell suspension, 50 μl of 200 U/ml recombinant human IL-2 (rhIL-2) and 100 μl of the test substance were added to a 96-well flat-bottomed microtest plate. […] The percent suppression (%) was calculated by the following formula. [formula]

[3] = system: mouse allogenic MLR (BALB/c mouse spleen cells stimulated with C57BL/6 mouse spleen cells); test: mouse allogenic mixed lymphocyte reaction (MLR), 3H-thymidine uptake
Procedure: The immunosuppressive activity of the compounds was assayed on the basis of mouse allogenic mixed lymphocyte reaction (hereinafter sometimes abbreviated as MLR). Mouse allogenic MRL was carried out using a mixed culture of BALB/c mouse (H-2^d) spleen cells as the responder cells and mitomycin C-treated C57BL/6 ([…]) mouse spleen cells as the stimulator cells in equal amounts.
The responder cells were prepared as follows:
The spleen was resected from 5- to 6-week-old BALB/c mice, and single cell suspension of spleen cells was prepared by using the RPMI1640 culture medium (containing 60 μg/ml of kanamycin sulfate, 2 mM of L-glutamine, 10 mM of N-2-hydroxyethylpiperazine-N'-2-ethanesulphonate (HEPES) and 0.1% sodium hydrogencarbonate) to which heat-inactivated fetal calf serum (hereinafter sometimes abbreviated as FCS) had been added to 5%. After hemolytic treatment, the cell suspension was adjusted to a concentration of 10^7 cells/ml with the RPMI1640 culture medium supplemented with 10^-4 M 2-mercapto-ethanol and 20% FCS, and was used as the responder cell suspension.
The stimulator cells were prepared as follows: The spleen was resected from 5- to 6-week-old male C57BL/6 mice, and a single cell suspension of spleen cells was prepared by using the RPMI1640 culture medium. After hemolytic treatment, the cells were treated with 40 μg/ml of mitomycin C at 37° C. for 60 minutes. After washing three times, the cell suspension was adjusted to a concentration of 10^7 cells/ml with the RPMI1640 culture medium supplemented with 10^-4 M 2-mercapto-ethanol and 20% FCS, and was used as the stimulator cell suspension.
The blastogenesis of lymphocytes was assayed using ^3 H-thymidine uptake as an index. That is, after termination of culture, 18.5 KBq/well of ^3 H-thymidine was added thereto and the suspension was cultured for 4 hours. Cells were harvested by a cell-harvester, and the radioactivity incorporated into the cells was determined by a liquid scintillation counter, which was used as an index of blastogenesis of lymphocytes in the mouse allogenic MLR. The suppression of the mouse allogenic MLR was evaluated by calculating the percent suppression by the following formula.
The test substance dissolved in methanol was diluted with the RPMI1640 culture medium and put to use.

[4] = Mus musculus, Lymphocyte, read-out: Suppression

CCCCCCCCCCCCCCCC[C@@H](O)[C@H](O)[C@@](N)(CO)C(=O)O [Example 2]
IL-2 activity ([1]; 0.001 μg/ml): 12.1 U/ml | IL-2 activity ([1]; 0.01 μg/ml): 7.0 U/ml | IL-2 activity ([1]; 0.1 μg/ml): 6.1 U/ml | IL-2 activity ([1]; 1 μg/ml): 3.7 U/ml | inhibition at 0.001 µg/mL [1]: 0% | inhibition at 0.01 µg/mL [1]: 42.1% | inhibition at 0.1 µg/mL [1]: 49.6% | inhibition at 1 µg/mL [1]: 69.4% | IL-3 activity ([2]; 0.001 μg/ml): 26.0 U/ml | IL-3 activity ([2]; 0.01 μg/ml): 13.9 U/ml | IL-3 activity ([2]; 0.1 μg/ml): 11.3 U/ml | IL-3 activity ([2]; 1 μg/ml): 7.5 U/ml | inhibition at 0.001 µg/mL [2]: 29.3% | inhibition at 0.01 µg/mL [2]: 62.2% | inhibition at 0.1 µg/mL [2]: 69.3% | inhibition at 1 µg/mL [2]: 79.6% | optical density (OD570) (CTLL-2 cells; 0.001 μg/ml, Table 6A): 0.555 | optical density (OD570) (CTLL-2 cells; 0.001 μg/ml, Table 6B): 0.898 | optical density (OD570) (CTLL-2 cells; 0.01 μg/ml, Table 6A): 0.543 | optical density (OD570) (CTLL-2 cells; 0.01 μg/ml, Table 6B): 0.880 | optical density (OD570) (CTLL-2 cells; 0.1 μg/ml, Table 6A): 0.558 | optical density (OD570) (CTLL-2 cells; 0.1 μg/ml, Table 6B): 0.774 | optical density (OD570) (CTLL-2 cells; 1 μg/ml, Table 6A): 0.161 | optical density (OD570) (CTLL-2 cells; 1 μg/ml, Table 6B): 0.508 | inhibition at 0.001 µg/mL (CTLL-2 cells; read-out: Suppression, 0.001 μg/ml, Table 6A): 5.3% | inhibition at 0.001 µg/mL (CTLL-2 cells; read-out: Suppression, 0.001 μg/ml, Table 6B): 6.7% | inhibition at 0.01 µg/mL (CTLL-2 cells; read-out: Suppression, 0.01 μg/ml, Table 6A): 7.4% | inhibition at 0.01 µg/mL (CTLL-2 cells; read-out: Suppression, 0.01 μg/ml, Table 6B): 8.7% | inhibition at 0.1 µg/mL (CTLL-2 cells; read-out: Suppression, 0.1 μg/ml, Table 6A): 4.8% | inhibition at 0.1 µg/mL (CTLL-2 cells; read-out: Suppression, 0.1 μg/ml, Table 6B): 20% | inhibition at 1 µg/mL (CTLL-2 cells; read-out: Suppression, 1 μg/ml, Table 6A): 72.6% | inhibition at 1 µg/mL (CTLL-2 cells; read-out: Suppression, 1 μg/ml, Table 6B): 48.4% | 3H-thymidine uptake ([3]; 0.001 μg/ml; Table 1A): 17981 cpm | 3H-thymidine uptake ([3]; 0.01 μg/ml; Table 1A): 12011 cpm | 3H-thymidine uptake ([3]; 0.1 μg/ml; Table 1A): 2329 cpm | 3H-thymidine uptake ([3]; 1 μg/ml; Table 1A): 1869 cpm | IC50 ([3]; Mus musculus, Lymphocyte, read-out: 50%-inhibition concentration (IC50) in mouse allogenic MLR): 0.016 µg/mL (≈ 0.0411 µM) | inhibition at 0.001 µg/mL [3, 4]: 2.7% | inhibition at 0.01 µg/mL [3, 4]: 38.2% | inhibition at 0.1 µg/mL [3, 4]: 95.8% | inhibition at 1 µg/mL [3, 4]: 98.6%

CCCCCCC(O)C=CCCCCC=CCC(O)C(O)C(N)(CO)C(=O)O (stereo not shown) [Example 1]
IL-2 activity ([1]; 0.001 μg/ml): 13.9 U/ml | IL-2 activity ([1]; 0.01 μg/ml): 6.1 U/ml | IL-2 activity ([1]; 0.1 μg/ml): 3.7 U/ml | IL-2 activity ([1]; 1 μg/ml): 2.0 U/ml | inhibition at 0.001 µg/mL ([1]; 0.001 μg/ml): 0% | inhibition at 0.01 µg/mL ([1]; 0.01 μg/ml): 49.6% | inhibition at 0.1 µg/mL ([1]; 0.1 μg/ml): 69.4% | inhibition at 1 µg/mL ([1]; 1 μg/ml): 83.5% | IL-3 activity ([2]; 0.001 μg/ml): 34.3 U/ml | IL-3 activity ([2]; 0.01 μg/ml): 27.9 U/ml | IL-3 activity ([2]; 0.1 μg/ml): 12.2 U/ml | IL-3 activity ([2]; 1 μg/ml): 10.5 U/ml | inhibition at 0.001 µg/mL ([2]; 0.001 μg/ml): 6.8% | inhibition at 0.01 µg/mL ([2]; 0.01 μg/ml): 24.2% | inhibition at 0.1 µg/mL ([2]; 0.1 μg/ml): 66.8% | inhibition at 1 µg/mL ([2]; 1 μg/ml): 71.5% | optical density (OD570) (CTLL-2 cells; 0.001 μg/ml, Table 6A): 0.508 | optical density (OD570) (CTLL-2 cells; 0.01 μg/ml, Table 6A): 0.556 | optical density (OD570) (CTLL-2 cells; 0.1 μg/ml, Table 6A): 0.009 | optical density (OD570) (CTLL-2 cells; 1 μg/ml, Table 6A): 0.005 | inhibition at 0.001 µg/mL (CTLL-2 cells; 0.001 μg/ml, Table 6A, read-out: Suppression): 13.3% | inhibition at 0.01 µg/mL (CTLL-2 cells; 0.01 μg/ml, Table 6A, read-out: Suppression): 5.1% | inhibition at 0.1 µg/mL (CTLL-2 cells; 0.1 μg/ml, Table 6A, read-out: Suppression): 98.6% | inhibition at 1 µg/mL (CTLL-2 cells; 1 μg/ml, Table 6A, read-out: Suppression): 99.3% | 3H-thymidine uptake ([3]; 0.0001 μg/ml; Table 1A): 17985 cpm | 3H-thymidine uptake ([3]; 0.001 μg/ml; Table 1A): 13566 cpm | 3H-thymidine uptake ([3]; 0.01 μg/ml; Table 1A): 11016 cpm | 3H-thymidine uptake ([3]; 0.1 μg/ml; Table 1A): 1020 cpm | 3H-thymidine uptake ([3]; 1 μg/ml; Table 1A): 919 cpm | inhibition at 0.0001 µg/mL ([3]; Mus musculus, Lymphocyte, 0.0001 μg/ml; Table 1A; read-out: Suppression): 2.7% | inhibition at 0.001 µg/mL ([3]; Mus musculus, Lymphocyte, 0.001 μg/ml; Table 1A; read-out: Suppression): 29% | inhibition at 0.01 µg/mL ([3]; Mus musculus, Lymphocyte, 0.01 μg/ml; Table 1A; read-out: Suppression): 44.1% | inhibition at 0.1 µg/mL ([3]; Mus musculus, Lymphocyte, 0.1 μg/ml; Table 1A; read-out: Suppression): 100% | inhibition at 1 µg/mL ([3]; Mus musculus, Lymphocyte, 1 μg/ml; Table 1A; read-out: Suppression): 100% | IC50 ([3]; Mus musculus, Lymphocyte; read-out: 50%-inhibition concentration (IC50) in mouse allogenic MLR): 0.013 µg/mL (≈ 0.0324 µM)
